The test concerns the target T1, Muscarinic acetylcholine receptor M4 (Homo sapiens, UniProt P08173).
T1 sequence (P08173 whole entry): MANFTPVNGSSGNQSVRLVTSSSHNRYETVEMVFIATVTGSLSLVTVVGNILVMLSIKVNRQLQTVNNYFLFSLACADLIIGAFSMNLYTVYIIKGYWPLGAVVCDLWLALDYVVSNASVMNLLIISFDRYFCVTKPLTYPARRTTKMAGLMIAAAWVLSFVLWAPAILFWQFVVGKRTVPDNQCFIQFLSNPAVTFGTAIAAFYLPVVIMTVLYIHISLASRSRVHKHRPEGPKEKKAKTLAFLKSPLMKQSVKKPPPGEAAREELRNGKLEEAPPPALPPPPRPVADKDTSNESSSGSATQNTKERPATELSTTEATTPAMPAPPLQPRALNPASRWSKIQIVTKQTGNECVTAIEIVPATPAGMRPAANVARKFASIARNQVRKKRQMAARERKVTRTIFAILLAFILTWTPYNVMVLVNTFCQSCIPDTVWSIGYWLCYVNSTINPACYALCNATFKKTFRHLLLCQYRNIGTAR
The test can be described thus: ChEBML_1696020. From the text: Positive allosteric modulation of human M4 receptor expressed in CHO cells co-expressing Gqi5 assessed as increase in acetylcholine-induced calcium mobilization

The structures appear in SMILES notation.

`N#Cc1cnc2ccc(F)cc2c1N1CCC(C(=O)NCc2ccccc2)CC1` came in with a half-maximal effective concentration (EC50) of 897 nM.

(Values after BindingDB's records for doi:10.1016/j.bmcl.2017.08.043 (Vanderbilt University, 2017).)
